Earlier results, collected in patent US20090117053A1, “LOCAL DELIVERY OF 5-AMINOLEVULINIC-ACID BASED COMPOUNDS TO TISSUES AND ORGANS FOR DIAGNOSTIC AND THERAPEUTIC PURPOSES” (Boston Scientific Scimed, Inc., priority 2007, published 2009).

What was measured:
[1] = comparison between ALA-based compounds
[2] = compared with ALA hydrochloride and various other ALA ester hydrochlorides
protoporphyrin IX (PPIX) = settings: compared with ALA hydrochloride and various other ALA ester hydrochlorides

Compound: CCOC(=O)CCC(=O)CN.Cl [ALA ethyl ester hydrochloride]
- hydrophilicity (relative ranking) [1]: more hydrophilic than ALA n-propyl ester hydrochloride

Compound: Cl.NCC(=O)CCC(=O)OCCC(F)(F)C(F)(F)C(F)(F)C(F)(F)F [ALA nonafluorohexylester hydrochloride]
- phototoxicity [2]: improved phototoxicity
- PPIX levels (protoporphyrin IX (PPIX)): appreciably increased PPIX levels

Compound: ALA dibenzyldiester dihydrochloride
- phototoxicity [2]: improved phototoxicity
- PPIX levels (protoporphyrin IX (PPIX)): appreciably increased PPIX levels

Compound: CCCCCCSC(=O)CCC(=O)CN.Cl [ALA thiohexylester hydrochloride, ALA thiohexyl ester hydrochloride]
- phototoxicity [2]: improved phototoxicity
- PPIX levels (protoporphyrin IX (PPIX)): appreciably increased PPIX levels

Compound: Cl.NCC(=O)CCC(=O)O [ALA hydrochloride, 5-aminolevulinic acid hydrochloride]
- hydrophilicity (relative ranking) [1]: more hydrophilic than ALA methyl ester hydrochloride

Compound: COC(=O)CCC(=O)CN.Cl [ALA methyl ester hydrochloride]
- hydrophilicity (relative ranking) [1]: more hydrophilic than ALA ethyl ester hydrochloride
